ChEMBL document CHEMBL5034031, “Discovery of Next-Generation Tropomyosin Receptor Kinase Inhibitors for Combating Multiple Resistance Associated with Protein Mutation” (J Med Chem, 2021)
Values belong to the compound of their own block, whether it stands above or below them.

Legend:
[1] = Metabolic stability in human liver microsomes assessed as half life at 1 uM measured upto 90 mins in presence of NADPH regenerating system by LC-MS/MS analysis; format: ADME, Microsome
BaF3 [2] = experiment: Antiproliferative activity against mouse BaF3 cells transfected with ETV6-wild type TRKA assessed as cell viability incubated for 72 hrs by CCK8 assay; format: functional, cell-based; settings: BaF3, 72 h
BaF3 [3] = experiment: Antiproliferative activity against mouse BaF3 cells transfected with ETV6-wild type TRKB assessed as cell viability incubated for 72 hrs by CCK8 assay; format: functional, cell-based; settings: BaF3, 72 h
BaF3 [4] = experiment: Antiproliferative activity against mouse BaF3 cells transfected with ETV6-wild type TRKC assessed as cell viability incubated for 72 hrs by CCK8 assay; format: functional, cell-based; settings: BaF3, 72 h
BaF3 [5] = format: functional, cell-based; settings: Mus musculus, BaF3, 72 h
BaF3 [6] = experiment: animal or person; format: functional; settings: Mus musculus, BaF3, po; read-out: TGI
BaF3 [7] = experiment: animal or person; format: functional; settings: Mus musculus, BaF3, po; read-out: TGI; remark: listed apart in the source

- half-life at 1 µM [1]: 365 min
SMILES: O=C(Nc1cnn2ccc(N3CCC[C@@H]3c3cc(F)ccc3F)nc12)N1CC[C@H](O)C1 [LAROTRECTINIB]
- inhibition in vivo at 15 mg/kg (BaF3 [7]): 70%

- half-life at 1 µM [1]: 3 min
SMILES: Cn1cc(-c2cnn3ccc(N4CCC[C@@H]4c4cc(F)ccc4F)nc23)cn1

- half-life at 1 µM [1]: 8.3 min
SMILES: Cn1cc(-c2cnn3ccc(N4CCC[C@@H]4c4cc(F)ccc4OCC(F)F)nc23)cn1

The next lines start with the compound.

SMILES: C[C@@H](Nc1ccn2ncc(-c3cnn(C)c3)c2n1)c1cc(F)ccc1OCC(F)F
- half-life at 1 µM [1]: 32.4 min

SMILES: C[C@@H]1CCc2ncc(F)cc2[C@H]2CCCN2c2ccn3ncc(c3n2)C(=O)N1 [SELITRECTINIB]
- IC50 (BaF3 [2]): 1.1 nM
- IC50 (BaF3 [3]): 1.4 nM
- IC50 (BaF3 [4]): 1.6 nM
- IC50 (BaF3 [5]): 72.6 nM
- inhibition in vivo at 100 mg/kg (BaF3 [6]): 64%
